Results on 22 molecules are retold here after ChEMBL document CHEMBL1154513, “Design and synthesis of 4-aryl-4-oxobutanoic acid amides as calpain inhibitors” (Bioorg Med Chem Lett, 2009).

This assay deals with T1, Calpain-1 catalytic subunit (Homo sapiens, UniProt P07384).
T1 sequence (P07384 whole entry): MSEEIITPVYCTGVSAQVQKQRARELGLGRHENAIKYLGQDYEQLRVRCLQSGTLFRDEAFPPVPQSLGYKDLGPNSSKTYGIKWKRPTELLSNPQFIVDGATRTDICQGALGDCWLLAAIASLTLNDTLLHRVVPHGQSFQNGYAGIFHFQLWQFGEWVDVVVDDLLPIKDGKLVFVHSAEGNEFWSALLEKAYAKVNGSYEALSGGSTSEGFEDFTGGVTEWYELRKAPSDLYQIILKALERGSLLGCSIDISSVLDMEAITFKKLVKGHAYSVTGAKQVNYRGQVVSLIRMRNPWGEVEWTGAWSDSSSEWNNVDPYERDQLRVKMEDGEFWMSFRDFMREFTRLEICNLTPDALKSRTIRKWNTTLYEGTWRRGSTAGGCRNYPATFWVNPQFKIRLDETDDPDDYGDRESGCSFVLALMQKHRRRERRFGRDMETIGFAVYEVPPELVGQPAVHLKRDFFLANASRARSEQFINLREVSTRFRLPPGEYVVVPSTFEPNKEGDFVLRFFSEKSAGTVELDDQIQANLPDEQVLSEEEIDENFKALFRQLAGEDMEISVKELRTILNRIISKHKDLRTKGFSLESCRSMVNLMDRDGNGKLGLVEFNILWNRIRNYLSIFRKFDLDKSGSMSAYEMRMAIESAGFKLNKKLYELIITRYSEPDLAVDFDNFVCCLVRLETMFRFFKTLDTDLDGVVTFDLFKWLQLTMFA
The assay can be described thus: Inhibition of human erythrocytes mu-calpain.
As a reminder, the IC50 is the concentration that gives 50% inhibition. The molecule `COc1ccc(CCNC(=O)C(=O)[C@H](Cc2ccccc2)NC(=O)CCC(=O)c2cc(OC)ccc2OC)cc1` had an IC50 of 0.95 µM. This counts as sub-micromolar. As for `O=C(CCC(=O)c1ccc(O)cc1O)N[C@@H](Cc1ccccc1)C(=O)C(=O)NCc1ccccc1`, the figure is 5.73 µM; as for `O=C(CCC(=O)c1ccccc1)N[C@@H](Cc1ccccc1)C(=O)C(=O)NCc1ccccc1`, 6.25 µM. As for `COc1ccc(C(=O)CCC(=O)N[C@@H](Cc2ccccc2)C(=O)C(=O)NCc2ccccc2)c(OC)c1`, the figure is 6.16 µM; as for `COc1ccc(OC)c(C(=O)CCC(=O)N[C@@H](Cc2ccccc2)C(=O)C(=O)NCc2ccccc2)c1`, 3.77 µM. As for `COc1ccc(OC)c(C(=O)CCC(=O)N[C@@H](Cc2ccccc2)C(=O)C(N)=O)c1`, the figure is 0.52 µM.

The molecule `COc1ccc(C(=O)CCC(=O)N[C@@H](Cc2ccccc2)C(=O)C(=O)NCc2ccccc2)c(O)c1` had an IC50 of 13 µM. As for `COCOc1cc(OC)ccc1C(=O)CCC(=O)N[C@@H](Cc1ccccc1)C(=O)C(=O)NCc1ccccc1`, the figure is 4.25 µM; as for `COCOc1cc(OC)ccc1C(=O)CCC(=O)N[C@@H](Cc1ccccc1)C(=O)C(N)=O`, 0.7 µM; as for `COc1ccc(OC)c(CCCC(=O)N[C@@H](Cc2ccccc2)C(=O)C(N)=O)c1`, 1.86 µM. With `O=C(CCC(=O)c1ccccc1O)N[C@@H](Cc1ccccc1)C(=O)C(=O)NCc1ccccc1`, it took 13.8 µM to reach half-maximal inhibition (IC50). As for `COc1ccc(OC)c(C(=O)CCC(=O)N[C@@H](Cc2ccccc2)C(=O)C(=O)NCCc2ccc(OC)c(OC)c2)c1`, the figure is 2.13 µM.

Regarding `COCOc1ccccc1C(=O)CCC(=O)N[C@@H](Cc1ccccc1)C(=O)C(=O)NCc1ccccc1`, the IC50 was 4.29 µM. This IC50 is about 2-fold higher than that of the molecule before. `NC(=O)C(=O)[C@H](Cc1ccccc1)NC(=O)CCC(=O)c1ccccc1`: the IC50 was 3.2 µM. This IC50 and that of the molecule before are within 1.5-fold of each other. In the case of `COc1ccc(OC)c(C(=O)CCC(=O)N[C@@H](Cc2ccccc2)C(=O)C(=O)NCCc2ccccc2)c1`, half-maximal inhibition (IC50) was put at 2.09 µM. As for `COc1ccc(CNC(=O)C(=O)[C@H](Cc2ccccc2)NC(=O)CCC(=O)c2cc(OC)ccc2OC)cc1`, the figure is 2.35 µM. `COc1ccccc1C(=O)CCC(=O)N[C@@H](Cc1ccccc1)C(=O)C(=O)NCc1ccccc1` had an IC50 of 3.33 µM. On to `COCOc1ccccc1C(=O)CCC(=O)N[C@@H](Cc1ccccc1)C(=O)C(N)=O`, for which half-maximal inhibition (IC50) was put at 0.34 µM. Compared with the last molecule, the IC50 is about 9.8-fold lower. As for `COc1ccc(C(=O)CCC(=O)N[C@@H](Cc2ccccc2)C(=O)C(N)=O)c(OC)c1`, the figure is 1.18 µM; as for `COc1ccc(OC)c(C(=O)CCC(=O)N[C@@H](Cc2ccccc2)C(=O)C(=O)NCc2ccc(OC)c(OC)c2)c1`, 1.64 µM.

In turn, `COc1ccc(OC)c(CCCC(=O)N[C@@H](Cc2ccccc2)C(=O)C(=O)NCc2ccccc2)c1` came in with a half-inhibitory concentration (IC50) of 8 µM. As for `COc1ccccc1C(=O)CCC(=O)N[C@@H](Cc1ccccc1)C(=O)C(N)=O`, the figure is 0.54 µM.
